Consider ten molecules from ChEMBL document CHEMBL1133708, “A new class of conformationally rigid analogues of 4-amino-5-halopentanoic acids, potent inactivators of gamma-aminobutyric acid aminotransferase” (J Med Chem, 2000).

Assay [1] has as its target 4-aminobutyrate aminotransferase, mitochondrial (Sus scrofa) (UniProt P80147). The assay can be described thus: Compound was evaluated for the kinetic constant for the inactivation of Gamma-amino-N-butyrate transaminase.
Assay [2] deals with T1, 4-aminobutyrate aminotransferase, mitochondrial (Sus scrofa, UniProt P80147). The assay can be described thus: Compound was evaluated for the kinetic constant for the inhibition of Gamma-amino-N-butyrate transaminase.
Assay [3] is described as follows: Selectivity ratio of Kinact/KI.
The target of assay [4] is T1, 4-aminobutyrate aminotransferase, mitochondrial. Kind of assay: Compound was evaluated for the competitive inhibition of Gamma-amino-N-butyrate transaminase.
The target of assay [5] is 4-aminobutyrate aminotransferase, mitochondrial (Sus scrofa) (UniProt P80147). Kind of assay: Compound was evaluated for the kinetic constant for the inhibition of Gamma-amino-N-butyrate transaminase; NA means no inactivation.
Sequence of 4-aminobutyrate aminotransferase, mitochondrial (Sus scrofa) (P80147 whole entry): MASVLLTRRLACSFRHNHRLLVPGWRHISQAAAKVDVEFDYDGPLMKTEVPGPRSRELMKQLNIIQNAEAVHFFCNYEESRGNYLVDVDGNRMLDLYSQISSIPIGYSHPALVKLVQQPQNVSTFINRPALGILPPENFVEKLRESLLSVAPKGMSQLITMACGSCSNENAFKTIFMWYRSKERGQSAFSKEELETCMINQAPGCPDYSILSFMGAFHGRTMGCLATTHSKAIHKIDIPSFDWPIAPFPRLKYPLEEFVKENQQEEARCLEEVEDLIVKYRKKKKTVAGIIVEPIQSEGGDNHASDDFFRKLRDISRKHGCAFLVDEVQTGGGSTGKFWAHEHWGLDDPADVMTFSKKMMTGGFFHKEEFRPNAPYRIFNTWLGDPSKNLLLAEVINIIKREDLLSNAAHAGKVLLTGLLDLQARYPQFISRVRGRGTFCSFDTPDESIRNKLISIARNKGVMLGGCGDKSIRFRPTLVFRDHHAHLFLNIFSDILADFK

T1 sequence (P80147 whole entry): as above

In general, kinact refers to the rate constant of inactivation at saturating inhibitor. One may read the Ki as a measure of affinity in units of concentration, obtained from inhibition or displacement. Low readings indicate tighter binding, high ones weaker binding. `NC(CF)CCC(=O)O` (configuration not stated): in assay [1], the inactivation rate constant (kinact) is 0.5 min⁻¹. The Ki in assay [2] was found to be 0.4 mM.

As to `N[C@H]1[C@@H](F)[C@@H](C(=O)O)C[C@@H]1Br`, the K inact/Ki in assay [3] was 0.122 M⁻¹ s⁻¹. Besides, the kinact in assay [1] amounted to 0.023 min⁻¹. For the same molecule, the Ki in assay [2] stood at 3.14 mM; in assay [4] it was 1.6 mM.

As to `N[C@H]1[C@H](Br)[C@@H](C(=O)O)C[C@@H]1Br`, in assay [3], the K inact/Ki is 0.0617 M⁻¹ s⁻¹. In addition, in assay [1], the kinact came to 0.18 min⁻¹. Also, the Ki in assay [2] came out at 49 mM; in assay [4] it was 4.2 mM.

Take `N[C@H]1[C@H](O)[C@@H](C(=O)O)C[C@@H]1Br`: the Ki in assay [4] was 5.9 mM. Also, in assay [5], the NA result was “No inactivation”.

As for `N[C@H]1C[C@@H](C(=O)O)C[C@@H]1F`, the K inact/Ki in assay [3] turned out to be 1.17 M⁻¹ s⁻¹. Besides, in assay [1], the inactivation rate constant (kinact) was 0.03 min⁻¹. The inhibition constant (Ki) in assay [2] was 0.43 mM; in assay [4], 0.012 mM.

In assay [4], `N[C@H]1[C@H](Br)[C@@H](C(=O)O)C[C@@H]1F` had a Ki of 4.7 mM. Further, in assay [5], the NA entry was “No inactivation”.

For the molecule `N[C@H]1C[C@@H](C(=O)O)C[C@@H]1Br`, the K inact/Ki in assay [3] was determined as 0.0217 M⁻¹ s⁻¹. The kinact in assay [1] worked out at 0.02 min⁻¹. The inhibition constant (Ki) in assay [2] was determined as 16 mM; in assay [4] it was 3.6 mM.

`N[C@@H]1CC[C@H](C(=O)O)[C@H]1Br` returned a Ki in assay [4] of 12 mM. In assay [5], the NA result was “No inactivation”.

For the molecule `N[C@H]1C[C@@H](C(=O)O)CC1(F)F`, in assay [5], the NA result was “No inactivation”.

In turn, `N[C@H]1[C@H](Br)[C@@H](C(=O)O)C[C@@H]1O` gave a Ki in assay [4] of 13 mM. The NA result in assay [5] was “No inactivation”.
